Measurements published in article PMC6141559, “Human-like smelling of a rose scent using an olfactory receptor nanodisc-based bioelectronic nose” (Scientific Reports, 2018).

Target: T1, human olfactory receptor 1A2 (hOR1A2) (Homo sapiens, UniProt Q9Y585)
T1 construct: gene OR1A2; hOR1A2 expressed in E. coli, purified and embedded in MSP1E3D1 nanodiscs
T1 sequence (Q9Y585 1-309): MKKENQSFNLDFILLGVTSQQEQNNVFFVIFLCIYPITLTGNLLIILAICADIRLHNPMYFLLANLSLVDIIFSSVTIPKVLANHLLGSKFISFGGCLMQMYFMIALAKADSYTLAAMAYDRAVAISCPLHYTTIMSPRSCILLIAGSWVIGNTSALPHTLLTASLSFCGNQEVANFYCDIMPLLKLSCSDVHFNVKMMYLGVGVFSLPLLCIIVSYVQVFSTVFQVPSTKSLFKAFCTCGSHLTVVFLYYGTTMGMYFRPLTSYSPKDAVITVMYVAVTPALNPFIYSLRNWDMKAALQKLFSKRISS
Experiment: nanodisc-functionalized floating-electrode CNT-FET biosensor, equilibrium (association) constant from Hill-Langmuir fit; also HEK-293 luciferase assay (Kd […])
Assay type: binding
Conditions: read-out: nanodisc-functionalized floating-electrode CNT-FET biosensor, equilibrium (assoc) (converted)

- Kd: 385 nM
Structure (SMILES): CC(C)=CCCC(C)CCO (stereo not shown) [citronellol]
